Measured values: patent US20260226128A1, “Capped Peptides and Methods for Using the Same” (The Board of Trustees of the Leland Stanford Junior …, priority 2023, published 2026)
pEC50: −log10 of the molar value. Where a SMILES comes first, the peptide text is derived from it.

Columns and labels:
[1] = Half-life of peptides incubated in mouse plasma, levels by LC-MS
Description: (§1) FIG. 4. […] (A) Schematic and annotation of the primary amino acid sequence for full-length mouse TAC1 preproprotein and its cleavage products. […] For (B), N=2 per concentration; for (C), N=3 per condition. For (B,C), data are shown as means±SEM. * P<0.05, ** P<0.01 versus control by Student's t-test.
Half-life calculations of CAP-TAC1 in plasma. 10 µM of either synthetic CAP-TAC1 or SP was incubated with 100 μl of mouse plasma. Samples were incubated at 37° C. for 0, 10, 30, 60, or 90 minutes (N=3 for each time point). At the indicated time point, 1 μl of HALT protease inhibitor was immediately added, and plasma was boiled and prepared using the peptidomics workflow described above. […] Half-lives were calculated using an exponential decay fit.

diet induced obese mice [2] = test: Daily CAP-TAC1 treatment of diet induced obese mice with pair fed group; type: in vivo, mouse; details: 10 mg/kg daily
Description: FIG. 10. […] (A) Body weight change and (B) food intake of diet induced obese mice injected with vehicle (18:1:1 Saline: DMSO: Kolliphor EL), 10 mg/kg CAP-TAC1 (pGlu-FFGLM-NH2), and vehicle pair fed to CAP-TAC1 group. (N=6 for vehicle, N=7 for CAP-TAC1 and pair fed groups, error bars are SEM, and P values calculated with two-way ANOVA.)
CAP-TAC1 treatments in mice. Injected diet induced obese (on high fat diet, 4 months old, male, C57BL/6J, Jackson cat #380050) mice daily with vehicle (18:1:1 Saline: DMSO: Kolliphor EL) or 10 mg/kg CAP-TAC1 (pGlu-FFGLM-NH2). The pair fed group was started one day later and fed the same food the CAP-TAC1 mice ate daily. Mice were singly housed and injected daily ~12 μm. Mouse body weights and food weights were measured at the same time. (N=6 for vehicle, N=7 for CAP-TAC1 and pair fed groups.)

human TACR1 = biological target: T1, human TACR1 (Homo sapiens, UniProt P25103); test: human TACR1-beta arrestin recruitment assay (PathHunter beta-arrestin CHO-K1 cells); type: cell-based; details: human TACR1-transfected PathHunter beta-arrestin CHO-K1 cells
T1 construct: host or cells: PathHunter beta-arrestin CHO-K1 cells
T1 sequence (P25103 whole entry): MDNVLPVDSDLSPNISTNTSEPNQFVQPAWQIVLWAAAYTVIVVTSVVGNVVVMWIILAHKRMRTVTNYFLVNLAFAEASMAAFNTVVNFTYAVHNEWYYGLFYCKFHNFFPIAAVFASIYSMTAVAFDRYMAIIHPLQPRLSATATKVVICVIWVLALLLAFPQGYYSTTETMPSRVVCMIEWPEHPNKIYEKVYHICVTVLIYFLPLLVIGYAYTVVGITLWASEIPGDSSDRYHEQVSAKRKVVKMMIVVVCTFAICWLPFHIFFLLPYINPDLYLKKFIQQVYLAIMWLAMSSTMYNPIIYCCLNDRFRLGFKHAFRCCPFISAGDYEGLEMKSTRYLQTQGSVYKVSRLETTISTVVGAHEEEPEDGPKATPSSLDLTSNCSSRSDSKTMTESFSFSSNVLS
Excerpt: as §1

diet induced obese mice [3] = test: Oxygen consumption after single CAP-TAC1 injection, metabolic chambers; type: in vivo, mouse; details: single injection at T=0, 10 mg/kg (FIG. 11 legend), over 24 hours
Description: FIG. 11. CAP-TAC1 acutely induces oxygen consumption over 24 hours. Oxygen consumption (VO2) of diet induced obese mice injected with a single injection at T=0 vehicle (18:1:1 Saline: DMSO: Kolliphor EL) or 10 mg/kg CAP-TAC1 (pGlu-FFGLM-NH2). (N=4 for vehicle and CAP-TAC1 groups, error bars are SEM, and P values calculated with two-way ANOVA.)
Metabolic chamber studies. For acute energy expenditure studies, food intake, RER, movement, VO2, and VCO2 were collected with CLAMS Oxymax Metabolic Cages. Mice were placed individual metabolic cages for 24 hours prior to experiment. For CAP-GDF15 experiments, mice were injected with either vehicle, 50 mg/kg CAP-GDF15, or 50 mg/kg scrambled CAP-GDF15 at 5 μm at T=0. For CAP-TAC1 experiments, mice were injected with either vehicle (18:1:1 Saline: DMSO: Kolliphor EL) or […] CAP-TAC1 (pGlu-FFGLM-NH2) at ~12 μm (T=0). Food intake, RER, movement, VO2, and VCO2 were collected every 7 minutes for […] immediately after injection. All experiments were done with 3-5 month old DIO mice (Jackson, stock 380050), fed high fat diet ad libitum.

diet-induced obese mice [4] = test: Single dose in diet-induced obese mice, metabolic chambers (CAP-GDF15 experiments); type: in vivo, mouse; details: single dose 50 mg/kg intraperitoneally
Description: (§2) FIG. 5. Functional studies of CAP-GDF15 in feeding and energy balance in mice. […] (B) Representative extracted ion chromatogram and (C) mirror tandem fragmentation spectra of CAP-GDF15 (pGlu-[…]-NH2; +2 ion m/z=682.4) and the endogenous plasma peak. (D) Food intake, (E) respiratory exchange ratio (RER), and (F) ambulatory activity of 12-16-week diet-induced obese male mice following a single treatment of CAP-GDF15 (50 mg/kg, intraperitoneal) or vehicle control. (G) Food intake, (H) RER, and (I) ambulatory activity of 12-16-week diet-induced obese male mice following a single treatment of scrambled CAP-GDF15 (50 mg/kg, intraperitoneal, scrambled sequence: pGlu-[…]-NH2) or vehicle control. (J) 3-day food intake and (K) body weight of 12-16-week diet-induced obese male mice following treatment with CAP-GDF15 or scrambled CAP-GDF15 (50 mg/kg/day, IP), or vehicle control. Data are shown as means #SEM. For (D-F), N=12/group; for (G-I), N=8/group; for (J,K), N=7/group. For (D-1), injection occurred at time T=0 (5:00 μm) and data was collected for the following 16 hrs. For (D-K), ** P<0.01, *** P<0.001 by two-way ANOVA.
FIG. 6. Additional measurements from metabolic chambers of mice treated with CAP-GDF15. (A) VO2 and (B) VCO2 of 12-16-week diet-induced obese male mice following a single treatment of CAP-GDF15 (50 mg/kg, intraperitoneal) or vehicle control. (C) VO2 and (D) VCO2 of 12-16-week diet-induced obese male mice following a single treatment of scrambled CAP-GDF15 (50 mg/kg, intraperitoneal, scrambled sequence: p[…]-NH2) or vehicle control. Data are shown as means±SEM. For (A-B), N=12/group; for (C-D), N=8/group. For (A-D), injection occurred at time T=0 (5:00 μm) and data was collected for the subsequent 16 hrs.
To test this possibility, we administered a single dose of CAP-GDF15 (50 mg/kg, intraperitoneally) to diet-induced obese mice and measured whole body parameters of energy balance in metabolic chambers.
We next synthesized a control CAP-GDF15 peptide that preserved amino acid composition but scrambled the intervening amino acid sequence (scrambled CAP-GDF15, pGlu-[…]-NH2). […] We conclude that the hypophagic effects of CAP-GDF15 are specific to this amino acid sequence.
(§3) Mice and treatments. Animal experiments were performed according to a procedure approved by the Stanford University Administrative Panel on Laboratory Animal Care. Mice were maintained in 12-h light-dark cycles at 22° C. and about 50% relative humidity and fed a standard irradiated rodent diet. Where indicated, a high-fat diet (D12492, Research Diets 60% kcal from fat) was used. Male C57BL/6J (stock number 000664) and male C57BL/6J DIO mice were purchased from the Jackson Laboratory (stock number 380050). For studies in high fat diet-fed mice, peptides were dissolved in 18:1:1 (by volume) of saline: Kolliphor EL (Sigma Aldrich): DMSO and administered to mice by intraperitoneal injections at a volume of 10 μl/g at the indicated doses for the indicated times. For lipopolysaccharide injection, LPS was dissolved in saline and administered to mice at a volume of 5 μl/g at indicated dose. For fasting, food was removed from mice for 16 h. For running, a six-lane Columbus Instruments animal treadmill (product 1055-SRM-D65) was used with following 1 h protocol: 10 min at 6 m/min, 50 min at 18 m/min, and increase every 2 min by 2 m/min for the last 10 minutes, all at 12° incline. For all treatment experiments, mice were mock injected with the vehicle for 3-5 days until body weights were stabilized. Heparin plasm was harvested by submandibular bleed. For all experiments, mice were randomly assigned to treatment groups. Experimenters were not blinded to groups.
Metabolic chamber studies. For acute energy expenditure studies, food intake, RER, movement, VO2, and VCO2 were collected with CLAMS Oxymax Metabolic Cages. Mice were placed individual metabolic cages for 24 hours prior to experiment. […]

diet-induced obese mice [5] = test: Three-day daily dosing in diet-induced obese mice, food intake and body weight; type: in vivo, mouse; details: 50 mg/kg/day, IP, 3 days, versus vehicle control
Description: as §2
Lastly, to determine whether the acute hypophagic effects of CAP-GDF15 would lead to long-term suppression of feeding and obesity, we administered CAP-GDF15 or scrambled CAP-GDF15 (50 mg/kg/day, IP), or vehicle control to diet-induced obese mice. Food intake and body weight were monitored over a three-day period. […] Importantly, mice treated with the scrambled CAP-GDF15 peptide were indistinguishable in body weight or food intake from control mice (FIGS. 5J-5K).
as §3, with “For all treatment experiments, mice were mock injected with the vehicle for 3-5 days until body weights were stabilized. Heparin plasm was harvested by submandibular bleed. For all experiments, mice were randomly assigned to treatment groups. Experimenters were not blinded to groups.” left out

GH3 cells = test: Growth hormone secretion from GH3 cells (ELISA of media); type: cell-based, rat; details: 10 μM
Description: FIG. 13. Functional screen in GH3 cells identifies CAP-WNT9A as a growth hormone secretagogue in vitro. (A) Z-score of media growth hormone concentration with 1 hour treatment of 10 μM of 100% conserved capped peptides growth hormone secretagogue activity in GH3 cells (N=1 for all peptides and N=3 for DMSO). (B) Media growth hormone concentration with 1 hour treatment of 10 μM CAP-WNT9A or DMSO (N=3/group). (Error bars are SEM.)
In a functional screen in GH3 cells, a rat pituitary cell line, various capped peptides are shown to activate growth hormone secretion (FIG. 13A).
In vitro studies. GH3 cells (rat pituitary cell line, ATCC cat. #CCL-82.1) were cultured in F-12K medium with 2.5% fetal bovine serum and 15% horse serum. GH3 cells were washed, resuspended in Krebs Ringer Hepes Buffer, diluted to 0.5 million cells/mL, and aliquoted into tubes (300 μL/sample). The GH3 cells were then starved for 60 minutes in Krebs Ringer Hepes Buffer. The capped peptides (N=1 in screen and N=3 in repeat with CAP-WNT9A) or DMSO (N=3) control were added at a 10 μM final concentration. GH3 cells were incubated for 1 hour. Cells were pelleted with 5 min centrifuge spin at 500×g at 4 C. Grown hormone was measured in the supernatant with an ELISA kit (Thermo Cat #KRC5311) according to product protocol. Z-score of growth hormone concentration is shown. […]

CSCC[C@H](NC(=O)[C@H](CC(C)C)NC(=O)CNC(=O)[C@H](Cc1ccccc1)NC(=O)[C@H](Cc1ccccc1)NC(=O)[C@@H]1CCC(=O)N1)C(N)=O [CAP-TAC1, pGlu-FFGLM-NH2] (HELM PEPTIDE1{[Glp].F.F.G.L.M.[am]}$$$$V2.0)
peptide level in mouse plasma after 90 min [1]: still detectable | half-life at 10 µM ([1]; mouse, plasma): 14.4 min | food intake (diet induced obese mice [2]; versus vehicle): independent of any changes of food intake | body weight change (diet induced obese mice [2]; versus vehicle and pair fed group): induces body weight loss | pEC50 (human TACR1; read-out: ED50, agonism of TACR1): 9.15 | Emax (human TACR1; read-out: maximal activation, % of maximal response): 96.6% | oxygen consumption (VO2) (diet induced obese mice [3]): induces an increase in oxygen consumption

pGlu-GLEALRARLRV-NH2 (HELM PEPTIDE1{[Glp].G.L.E.A.L.R.A.R.L.R.V.[am]}$$$$V2.0; SMILES CC(C)C[C@H](NC(=O)CNC(=O)[C@@H]1CCC(=O)N1)C(=O)N[C@@H](CCC(=O)O)C(=O)N[C@@H](C)C(=O)N[C@@H](CC(C)C)C(=O)N[C@@H](CCCNC(=N)N)C(=O)N[C@@H](C)C(=O)N[C@@H](CCCNC(=N)N)C(=O)N[C@@H](CC(C)C)C(=O)N[C@@H](CCCNC(=N)N)C(=O)N[C@H](C(N)=O)C(C)C) [scrambled CAP-GDF15, reference compound]
respiratory exchange ratio (RER) (diet-induced obese mice [4]; 16 hrs after injection): completely ineffective | food intake, effect in words (diet-induced obese mice [4]; identical experimental conditions): completely ineffective | body weight over three-day period (diet-induced obese mice [5]): indistinguishable | food intake over three-day period (diet-induced obese mice [5]): indistinguishable

pGlu-LELRLRVAAGR-NH2 (HELM PEPTIDE1{[Glp].L.E.L.R.L.R.V.A.A.G.R.[am]}$$$$V2.0; SMILES CC(C)C[C@H](NC(=O)[C@@H]1CCC(=O)N1)C(=O)N[C@@H](CCC(=O)O)C(=O)N[C@@H](CC(C)C)C(=O)N[C@@H](CCCNC(=N)N)C(=O)N[C@@H](CC(C)C)C(=O)N[C@@H](CCCNC(=N)N)C(=O)N[C@H](C(=O)N[C@@H](C)C(=O)N[C@@H](C)C(=O)NCC(=O)N[C@@H](CCCNC(=N)N)C(N)=O)C(C)C) [CAP-GDF15, 12-mer capped peptide from amino acids 174-185 of mouse GDF15 prepropeptide region]
carbon dioxide production (VCO2) (diet-induced obese mice [4]): did not alter | movement (ambulatory activity) (diet-induced obese mice [4]): did not alter | oxygen consumption (VO2) (diet-induced obese mice [4]): did not alter | respiratory exchange ratio (RER) (diet-induced obese mice [4]; 16 hrs after injection): suppression of respiratory exchange ratio (RER) was also observed | suppression of food intake compared to vehicle-treated mice (diet-induced obese mice [4]; 16 hrs after injection): ~ 60% | body weight over three-day period (diet-induced obese mice [5]): increasing reduction in body weight | food intake over three-day period (diet-induced obese mice [5]): durable suppression of food intake

pGlu-WGGCGDNLKYSSKFVEFL-NH2 (HELM PEPTIDE1{[Glp].W.G.G.C.G.D.N.L.K.Y.S.S.K.F.V.E.F.L.[am]}$$$$V2.0; SMILES CC(C)C[C@H](NC(=O)[C@H](Cc1ccccc1)NC(=O)[C@H](CCC(=O)O)NC(=O)[C@@H](NC(=O)[C@H](Cc1ccccc1)NC(=O)[C@H](CCCCN)NC(=O)[C@H](CO)NC(=O)[C@H](CO)NC(=O)[C@H](Cc1ccc(O)cc1)NC(=O)[C@H](CCCCN)NC(=O)[C@H](CC(C)C)NC(=O)[C@H](CC(N)=O)NC(=O)[C@H](CC(=O)O)NC(=O)CNC(=O)[C@H](CS)NC(=O)CNC(=O)CNC(=O)[C@H](Cc1c[nH]c2ccccc12)NC(=O)[C@@H]1CCC(=O)N1)C(C)C)C(N)=O) [CAP-WNT9A, top hit of growth hormone secretagogue screen]
growth hormone secretagogue activity in screen (Z-score of media growth hormone concentration) (GH3 cells; 1 hour treatment, N=1): highest growth hormone secretagogue activity | growth hormone concentration in media versus DMSO (GH3 cells; one hour treatment, N=3): increased by four times
